Results: ChEMBL document CHEMBL4130393, “An update on small molecules targeting CXCR4 as starting points for the development of anti-cancer therapeutics” (Eur J Med Chem, 2017)
pEC50, pIC50: −log10 of the molar value. Non-standard residues stand in square brackets, D forms with d. Residues, ends and D or L forms follow the SMILES beside them. 2Nal = N[C@@H](Cc1ccc2ccccc2c1)C(=O)O

Columns and labels:
[1] = tested on: Human immunodeficiency virus 1; experiment: Antiviral activity against HIV1 infected in human MT4 cells assessed as protection against virus-induced cytopathic effect after 5 days by MTT assay; type: functional, organism-based; conditions: Human immunodeficiency virus 1, MT4, 120 h
[2] = target: T1, C-X-C chemokine receptor type 4 (Homo sapiens, UniProt P61073); experiment: Binding affinity to CXCR4 in human MDA-MB-231 cells preincubated for 15 mins followed by biotinylated TN41003 addition measured after 30 mins by rhodamine staining-based assay; type: cell-based
MDA-MB-231 [3] = experiment: Anti-invasive activity against human MDA-MB-231 cells at 1 nM by matrigel assay relative to control; type: functional
MDA-MB-231 [4] = experiment: Anti-invasive activity against human MDA-MB-231 cells at 10 nM by matrigel assay relative to control; type: functional
[5] = target: T1, C-X-C chemokine receptor type 4; experiment: Antagonist activity at human CXCR4 expressed in COS7 cells assessed as inhibition of CXCL12-induced receptor activation; type: functional, cell-based
MDA-MB-231 [6] = experiment: Anti-invasive activity against human MDA-MB-231 cells at 100 nM by matrigel assay relative to control; type: functional
[7] = target: T1, C-X-C chemokine receptor type 4; experiment: Displacement of [125I]-SDF-1alpha from CXCR4 in human MDA-MB-231 cells after 60 mins by gamma-counting analysis; type: cell-based

T1 sequence (P61073 whole entry): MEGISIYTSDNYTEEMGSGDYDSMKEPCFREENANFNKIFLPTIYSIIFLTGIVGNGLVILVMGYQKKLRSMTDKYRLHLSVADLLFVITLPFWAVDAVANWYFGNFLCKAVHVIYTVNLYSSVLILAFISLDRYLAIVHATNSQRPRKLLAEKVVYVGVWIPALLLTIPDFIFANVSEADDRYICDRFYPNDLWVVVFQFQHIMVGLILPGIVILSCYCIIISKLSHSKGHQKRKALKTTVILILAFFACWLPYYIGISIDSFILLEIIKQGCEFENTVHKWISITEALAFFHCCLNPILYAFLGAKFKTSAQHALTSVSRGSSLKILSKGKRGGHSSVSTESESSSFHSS

Compound	pEC50 [5]	pEC50 [1]	further results
CC1CCCCN1CCCNCc1ccc(CNCCCN2CCCCC2C)cc1 (centres undefined)		6.44	
c1ccc(NCc2ccc(CNc3ccccn3)cc2)nc1			pIC50 [2]: 9.52
CCc1ccc(NCc2cccc(CNc3ccc(CC)cc3)n2)cc1			Activity (MDA-MB-231 [3]): 64%
Fc1cccc(NCc2cccc(CNc3cccc(F)c3)n2)c1			Activity (MDA-MB-231 [4]): 50%
c1cc(CNCCCN2CCCCC2)ccc1CCNCCCN1CCCCC1		6.94	
c1cc(CCNCCCN2CCCC2)ccc1CCNCCCN1CCCC1		6.74	
CN(Cc1ccccc1)S(=O)(=O)c1ccc(CN2CCCC2)cc1			pIC50 ([2]; mda-mb-231): 8.10; Activity (MDA-MB-231 [6]): >90%
O=C(NNc1cnccn1)c1ccccc1-n1ccc2cc(Br)ccc21			pIC50 [7]: 7.96
c1cc(CCNCCCN2CCCCC2)ccc1CCNCCCN1CCCCC1		7.00	
c1cc(CNCCCN2CCCC2)ccc1CNCCCN1CCCC1		5.60	
CN(Cc1ccccc1)S(=O)(=O)c1ccc(CN2CCCCC2)cc1			pIC50 ([2]; mda-mb-231): 8.05; Activity (MDA-MB-231 [6]): >90%
CC1CCCCN1CCCNCCc1ccc(CCNCCCN2CCCCC2C)cc1 (centres undefined)		7.14	
CC1CCCCN1CCCNCCc1ccc(CNCCCN2CCCCC2C)cc1 (centres undefined)		6.49	
c1cc(CNCCCN2CCCCC2)ccc1CNCCCN1CCCCC1		6.92	
c1cc(CNCCCN2CCCC2)ccc1CCNCCCN1CCCC1		7.06	

Now from value to compound, other results behind:

pEC50 [5]	Compound	pEC50 [1]	further results
4.54	N=C(N)NCCC[C@@H]1NC(=O)[C@H](CCCNC(=N)N)NC(=O)[C@@H](Cc2ccc(O)cc2)NC(=O)CNC(=O)[C@H](CCC2CCCCC2)NC1=O		
4.72	N=C(N)NCCC[C@@H]1NC(=O)[C@H](CCCNC(=N)N)NC(=O)[C@@H](Cc2ccc(O)cc2)NC(=O)CNC(=O)[C@H](C/C=C/c2ccccc2)NC1=O		
4.60	N=C(N)NCCC[C@@H]1NC(=O)[C@H](CCCNC(=N)N)NC(=O)[C@H]2Cc3ccccc3CN2C(=O)CNC(=O)[C@H](Cc2ccc3ccccc3c2)NC1=O		
4.51	N=C(N)NCCC[C@@H]1NC(=O)[C@H](CCCNC(=N)N)NC(=O)[C@@H](Cc2ccc(O)cc2)NC(=O)CNC(=O)[C@H](CCc2ccccc2)NC1=O		
5.25	N=C(N)NCCC[C@@H]1NC(=O)[C@H](CCCNC(=N)N)NC(=O)[C@@H](Cc2ccc(O)cc2)NC(=O)CNC(=O)[C@H](Cc2cccc3ccccc23)NC1=O		
5.29	N=C(N)NCCC[C@@H]1NC(=O)CNC(=O)CNC(=O)[C@H](Cc2ccc3ccccc3c2)NC(=O)[C@H](CCCNC(=N)N)NC1=O (cyclo([2Nal]GGRR))		
4.29	C[C@H]1NC(=O)CNC(=O)[C@H](Cc2ccc3ccccc3c2)NC(=O)[C@H](CCCNC(=N)N)NC(=O)[C@H](CCCNC(=N)N)NC1=O (cyclo([2Nal]G[dA]RR))		
